Columns and labels:
Assay in all cases: Kinase panel (mobility shift)
Type in all cases: biochemical
EPH-A6 = biological target: T1, EPH-A6 (Homo sapiens, UniProt Q9UF33)
T1 sequence (Q9UF33 23-1036): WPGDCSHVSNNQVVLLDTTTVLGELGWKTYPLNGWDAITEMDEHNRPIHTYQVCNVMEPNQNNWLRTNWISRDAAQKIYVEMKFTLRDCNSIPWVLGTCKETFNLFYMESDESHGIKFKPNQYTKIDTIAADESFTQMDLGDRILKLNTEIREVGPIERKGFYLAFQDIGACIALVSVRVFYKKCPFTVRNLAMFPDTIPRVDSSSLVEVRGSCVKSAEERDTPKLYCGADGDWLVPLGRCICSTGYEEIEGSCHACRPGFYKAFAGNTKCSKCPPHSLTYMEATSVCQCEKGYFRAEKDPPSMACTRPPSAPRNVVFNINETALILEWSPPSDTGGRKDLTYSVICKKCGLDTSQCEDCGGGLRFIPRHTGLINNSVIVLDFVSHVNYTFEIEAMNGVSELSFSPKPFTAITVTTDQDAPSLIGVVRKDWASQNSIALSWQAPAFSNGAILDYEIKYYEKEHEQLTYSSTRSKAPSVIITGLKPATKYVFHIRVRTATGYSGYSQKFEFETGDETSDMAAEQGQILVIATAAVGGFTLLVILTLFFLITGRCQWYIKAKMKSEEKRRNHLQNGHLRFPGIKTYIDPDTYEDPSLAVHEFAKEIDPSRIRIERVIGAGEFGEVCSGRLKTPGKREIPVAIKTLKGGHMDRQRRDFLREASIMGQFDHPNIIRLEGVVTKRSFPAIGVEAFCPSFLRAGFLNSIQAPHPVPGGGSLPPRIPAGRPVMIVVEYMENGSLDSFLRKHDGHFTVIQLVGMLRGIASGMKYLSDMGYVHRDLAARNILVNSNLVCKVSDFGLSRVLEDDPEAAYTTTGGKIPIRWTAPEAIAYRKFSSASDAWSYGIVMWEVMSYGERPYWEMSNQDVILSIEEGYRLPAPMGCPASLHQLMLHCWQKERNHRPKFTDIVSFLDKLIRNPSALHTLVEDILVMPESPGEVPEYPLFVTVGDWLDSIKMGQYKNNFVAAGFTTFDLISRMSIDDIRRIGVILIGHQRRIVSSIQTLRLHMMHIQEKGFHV
Outline: (§1)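 Microfluidic mobility-shift readout: product and substrate peaks are resolved by charge, and their fluorescence is compared to give enzyme activity. Enzyme, fluorescent substrate and test compound are reacted, then terminated before chip loading. Values are binned at 5 um: A 95% or greater, B 90%-94%, C 80%-89%.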

EPH-B4 = biological target: T2, EPH-B4 (Homo sapiens, UniProt P54760)
T2 sequence (P54760 16-987): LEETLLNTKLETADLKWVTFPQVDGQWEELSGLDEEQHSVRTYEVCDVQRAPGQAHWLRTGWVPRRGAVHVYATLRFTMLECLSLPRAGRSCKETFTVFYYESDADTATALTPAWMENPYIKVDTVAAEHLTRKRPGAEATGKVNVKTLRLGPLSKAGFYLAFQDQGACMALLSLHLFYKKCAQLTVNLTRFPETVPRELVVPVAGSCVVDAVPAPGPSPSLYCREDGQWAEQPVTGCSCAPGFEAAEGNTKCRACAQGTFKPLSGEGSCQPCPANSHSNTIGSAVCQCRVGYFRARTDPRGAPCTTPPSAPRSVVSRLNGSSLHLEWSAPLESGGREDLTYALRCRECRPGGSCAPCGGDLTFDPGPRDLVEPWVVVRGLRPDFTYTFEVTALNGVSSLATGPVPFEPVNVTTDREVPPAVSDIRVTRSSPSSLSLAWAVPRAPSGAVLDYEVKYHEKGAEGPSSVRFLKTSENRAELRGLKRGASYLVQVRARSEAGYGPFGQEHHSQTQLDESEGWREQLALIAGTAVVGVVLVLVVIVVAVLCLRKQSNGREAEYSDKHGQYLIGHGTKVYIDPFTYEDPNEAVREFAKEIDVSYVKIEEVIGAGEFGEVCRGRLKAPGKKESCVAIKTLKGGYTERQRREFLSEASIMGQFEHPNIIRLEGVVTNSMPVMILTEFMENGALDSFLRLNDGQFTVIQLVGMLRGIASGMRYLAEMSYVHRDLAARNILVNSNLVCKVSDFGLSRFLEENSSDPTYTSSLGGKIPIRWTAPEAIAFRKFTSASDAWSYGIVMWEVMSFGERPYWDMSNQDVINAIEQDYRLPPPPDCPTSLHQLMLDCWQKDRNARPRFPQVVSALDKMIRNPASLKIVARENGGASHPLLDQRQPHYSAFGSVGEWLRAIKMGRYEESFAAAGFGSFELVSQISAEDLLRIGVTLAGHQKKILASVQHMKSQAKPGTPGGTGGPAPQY
Outline: as §1

P38-b = P38-b (Homo sapiens, UniProt Q15759)
Sequence of P38-b (Q15759 whole entry, species assumed): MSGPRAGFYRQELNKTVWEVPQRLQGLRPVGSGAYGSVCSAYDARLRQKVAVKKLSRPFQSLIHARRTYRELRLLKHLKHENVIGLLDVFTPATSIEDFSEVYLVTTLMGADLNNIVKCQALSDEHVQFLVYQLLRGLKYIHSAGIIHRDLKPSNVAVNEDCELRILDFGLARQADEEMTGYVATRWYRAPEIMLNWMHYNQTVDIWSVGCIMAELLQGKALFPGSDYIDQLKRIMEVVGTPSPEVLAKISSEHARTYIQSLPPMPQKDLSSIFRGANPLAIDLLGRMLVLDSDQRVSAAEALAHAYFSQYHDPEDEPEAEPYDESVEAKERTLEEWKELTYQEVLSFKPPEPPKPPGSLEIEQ
Outline: as §1

PDGFR-a = PDGFR-a (Homo sapiens, UniProt P16234)
Sequence of PDGFR-a (P16234 24-1089, species assumed): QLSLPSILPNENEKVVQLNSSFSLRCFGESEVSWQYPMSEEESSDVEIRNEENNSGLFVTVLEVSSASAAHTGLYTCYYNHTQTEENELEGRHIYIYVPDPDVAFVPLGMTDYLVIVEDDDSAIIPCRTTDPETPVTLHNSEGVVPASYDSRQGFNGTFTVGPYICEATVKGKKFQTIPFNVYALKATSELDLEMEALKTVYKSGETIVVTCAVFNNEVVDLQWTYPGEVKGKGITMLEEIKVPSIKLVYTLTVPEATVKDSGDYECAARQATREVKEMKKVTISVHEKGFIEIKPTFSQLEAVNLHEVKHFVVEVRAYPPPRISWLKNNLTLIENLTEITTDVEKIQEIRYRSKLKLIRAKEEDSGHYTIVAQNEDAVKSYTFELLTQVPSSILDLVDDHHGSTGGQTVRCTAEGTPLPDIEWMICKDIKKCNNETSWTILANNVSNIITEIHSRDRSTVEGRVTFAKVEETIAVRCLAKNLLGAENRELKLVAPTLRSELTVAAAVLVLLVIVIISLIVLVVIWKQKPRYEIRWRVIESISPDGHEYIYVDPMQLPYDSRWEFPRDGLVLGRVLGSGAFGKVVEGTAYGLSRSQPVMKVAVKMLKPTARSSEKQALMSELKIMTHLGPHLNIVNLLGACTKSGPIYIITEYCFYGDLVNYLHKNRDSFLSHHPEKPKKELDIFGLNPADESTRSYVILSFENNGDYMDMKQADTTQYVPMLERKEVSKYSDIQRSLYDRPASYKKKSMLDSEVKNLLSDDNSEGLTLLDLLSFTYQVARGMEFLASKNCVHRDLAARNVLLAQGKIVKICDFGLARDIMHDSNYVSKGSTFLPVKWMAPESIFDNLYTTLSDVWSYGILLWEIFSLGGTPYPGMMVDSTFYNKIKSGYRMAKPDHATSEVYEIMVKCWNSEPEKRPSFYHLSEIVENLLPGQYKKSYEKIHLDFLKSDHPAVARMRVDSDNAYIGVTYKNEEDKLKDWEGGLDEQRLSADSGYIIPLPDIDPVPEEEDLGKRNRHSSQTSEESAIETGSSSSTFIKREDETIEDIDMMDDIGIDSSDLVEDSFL
Outline: as §1

RIPK2 = RIPK2 (Homo sapiens, UniProt O43353)
Sequence of RIPK2 (O43353 whole entry, species assumed): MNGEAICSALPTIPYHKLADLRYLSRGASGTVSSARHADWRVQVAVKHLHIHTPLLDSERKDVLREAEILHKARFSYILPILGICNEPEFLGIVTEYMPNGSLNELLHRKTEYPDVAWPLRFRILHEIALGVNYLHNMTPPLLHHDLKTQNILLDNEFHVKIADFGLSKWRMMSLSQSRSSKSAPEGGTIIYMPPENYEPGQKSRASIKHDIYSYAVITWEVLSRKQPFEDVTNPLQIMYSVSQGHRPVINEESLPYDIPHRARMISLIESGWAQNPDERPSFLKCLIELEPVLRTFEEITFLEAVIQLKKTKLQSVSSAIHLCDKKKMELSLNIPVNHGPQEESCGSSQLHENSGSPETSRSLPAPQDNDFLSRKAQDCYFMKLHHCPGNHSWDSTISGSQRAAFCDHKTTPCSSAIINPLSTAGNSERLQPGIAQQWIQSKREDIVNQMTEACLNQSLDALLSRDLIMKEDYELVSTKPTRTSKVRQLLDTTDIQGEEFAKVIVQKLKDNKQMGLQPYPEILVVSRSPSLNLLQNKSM
Outline: as §1

Row | Structure (SMILES) | inhibition at 5 µM (EPH-A6) [%] | inhibition at 5 µM (EPH-B4) [%] | inhibition at 5 µM (P38-b) [%] | inhibition at 5 µM (PDGFR-a) [%] | inhibition at 5 µM (RIPK2) [%]
1 | CNC(=O)c1cc(Oc2ccc(NC(=O)c3nc(NC)sc3-c3ccc(F)cc3F)cc2F)ccn1 [Compound 21] | 50 to 79 | < 50 | < 50 | < 50 | 50 to 79
2 | CNC(=O)c1cc(Oc2ccc(NC(=O)c3nc(NC)sc3-c3ccc(F)cc3C)cc2F)ccn1 [Compound 23] | 80 to 89 | 50 to 79 | < 50 | < 50 | 80 to 89
3 | CNC(=O)c1cc(Oc2ccc(NC(=O)c3nc(OC)oc3-c3ccc(F)s3)cc2F)ccn1 [Compound 25] | 50 to 79 | < 50 | < 50 | < 50 | < 50
4 | CSc1nc(C(=O)Nc2ccc(Oc3ccnc(C(=O)NC4CNC4)c3)c(F)c2)c(-c2ccc(F)s2)o1 [Compound 27] | < 50 | < 50 | < 50 | < 50 | < 50
5 | CSc1nc(C(=O)Nc2ccc(Oc3ccnc(C(=O)NC4COC4)c3)c(F)c2)c(-c2ccc(F)s2)o1 [Compound 28] | < 50 | < 50 | < 50 | < 50 | < 50
6 | [2H]C([2H])([2H])NC(=O)c1cc(Oc2ccc(NC(=O)c3nc(SC)oc3-c3ccc(F)c(F)c3)cc2F)ccn1 [Compound 33] | 50 to 79 | < 50 | < 50 | < 50 | 50 to 79
7 | [2H]C([2H])([2H])NC(=O)c1cc(Oc2ccc(NC(=O)c3nc(SC)oc3-c3ccc(F)s3)cc2F)ccn1 [Compound 35] | 50 to 79 | < 50 | < 50 | < 50 | 50 to 79
8 | CNC(=O)c1ccc(Oc2ccc(NC(=O)c3nc(Cl)oc3-c3ccc(F)cc3)c(F)c2)cn1 [Compound 36] | 50 to 79 | < 50 | < 50 | < 50 | 50 to 79
9 | CSc1nc(C(=O)Nc2ccc(Oc3ccnc(C(=O)NC4COC4)c3)c(F)c2)c(-c2ccc(F)c(F)c2)o1 [Compound 37] | < 50 | < 50 | < 50 | < 50 | < 50

Other lines, results leading:

Row | inhibition at 5 µM (EPH-A6) [%] | inhibition at 5 µM (EPH-B4) [%] | inhibition at 5 µM (P38-b) [%] | inhibition at 5 µM (PDGFR-a) [%] | inhibition at 5 µM (RIPK2) [%] | Structure (SMILES)
10 | 50 to 79 | < 50 | < 50 | < 50 | 50 to 79 | CNC(=O)c1cc(Oc2ccc(NC(=O)c3nc(OC)oc3-c3ccc(F)c(F)c3)cc2F)ccn1 [Compound 24]
11 | 90 to 94 | 80 to 89 | 50 to 79 | 50 to 79 | 80 to 89 | CNC(=O)c1cc(Oc2ccc(NC(=O)c3nc(C4CC4)oc3-c3ccc(F)cc3)cc2F)ccn1 [Compound 26]
12 | 80 to 89 | < 50 | 80 to 89 | < 50 | 80 to 89 | CSc1nc(C(=O)Nc2ccc(Oc3ccnc(C(=O)NC4CNC4)c3)c(F)c2)c(-c2ccc(F)cc2)o1 [Compound 29]
13 | ≥ 95 | 80 to 89 | 50 to 79 | 50 to 79 | 80 to 89 | CNC(=O)c1cc(Oc2ccc(NC(=O)c3nc(COC)oc3-c3ccc(F)cc3)cc2F)ccn1 [Compound 30]
14 | 80 to 89 | < 50 | < 50 | < 50 | 50 to 79 | CSc1nc(C(=O)Nc2ccc(Oc3ccnc(C(=O)NC4COC4)c3)c(F)c2)c(-c2ccc(F)cc2)o1 [Compound 31]
15 | 90 to 94 | 50 to 79 | 50 to 79 | < 50 | 50 to 79 | CNC(=O)c1cc(Oc2ccc(NC(=O)c3nc(OC4CC4)oc3-c3ccc(F)cc3)cc2F)ccn1 [Compound 32]
16 | 90 to 94 | 80 to 89 | 50 to 79 | < 50 | 50 to 79 | CNC(=O)c1cc(Oc2ccc(NC(=O)c3nc(SC(C)C)oc3-c3ccc(F)cc3)cc2F)ccn1 [Compound 34]
17 | 80 to 89 | 50 to 79 | < 50 | < 50 | 50 to 79 | CNC(=O)c1cc(Oc2ccc(NC(=O)c3nc(OCC(F)(F)F)oc3-c3ccc(F)cc3)cc2F)ccn1 [Compound 38]
18 | 80 to 89 | < 50 | < 50 | < 50 | 50 to 79 | COc1nc(C(=O)Nc2ccc(Oc3ccnc(C(=O)NC4COC4)c3)c(F)c2)c(-c2ccc(F)cc2)o1 [Compound 39]
19 | < 50 | < 50 | < 50 | < 50 | < 50 | CSc1nc(C(=O)Nc2ccc(Oc3ccnc(C(=O)NCC(F)(F)F)c3)c(F)c2)c(-c2ccc(F)cc2)o1 [Compound 40]
20 | 80 to 89 | < 50 | 80 to 89 | < 50 | 80 to 89 | CSc1nc(C(=O)Nc2ccc(Oc3ccnc(C(=O)NCCN(C)C)c3)c(F)c2)c(-c2ccc(F)cc2)o1 [Compound 41]
21 | 50 to 79 | < 50 | 80 to 89 | < 50 | 50 to 79 | CSc1nc(C(=O)Nc2ccc(Oc3ccnc(C(=O)NC4CCN(C)CC4)c3)c(F)c2)c(-c2ccc(F)cc2)o1 [Compound 42]
22 | < 50 | < 50 | < 50 | < 50 | < 50 | COc1nc(C(=O)Nc2ccc(Oc3ccnc(C(=O)NCC(F)(F)F)c3)c(F)c2)c(-c2ccc(F)cc2)o1 [Compound 43]
